Experimental data: ChEMBL document CHEMBL1134369, “Inhibition of heme detoxification processes underlies the antimalarial activity of terpene isonitrile compounds from marine sponges” (J Med Chem, 2001)

System: Plasmodium falciparum
Test: Antiplasmodial activity against Plasmodium falciparum D6
Assay type: functional, organism-based

| SMILES | IC50 |
| --- | --- |
| [C-]#[N+][C@@]1(C)CC[C@H]2[C@H]3[C@H]4C(=CC(C)(C)C[C@@H]4C[C@@H]2C)CC[C@@H]31 | 249 nM |
| C=C[C@H]1C[C@H](C)[C@H]2CC[C@](C)(N=C=S)[C@H]3CCC(=C)[C@]1(O)[C@H]23 | 2310 nM |
| [C-]#[N+][C@]1(C)[C@H](C)C[C@@H]2C[C@H](C)[C@H]3CC[C@](C)([N+]#[C-])[C@H]4CC[C@H]1[C@@H]2[C@H]34 [DIISOCYANOADOCIANE] | 14.5 nM |
| [C-]#[N+][C@@]1(C)CC[C@H]2[C@H]3[C@@H](C(=C)CC[C@@H]31)[C@H](CC(C)(C)N=C=S)C[C@@H]2C | 1320 nM |
| [C-]#[N+][C@@]1(C)CC[C@H]2[C@H]3[C@H]4[C@H](CC[C@@H]31)[C@H](C)C(C)=C[C@@H]4C[C@@H]2C | 210 nM |
| [C-]#[N+][C@@]1(C)CC[C@H]2[C@H]3[C@@H]4[C@H](C[C@@H](C)[C@@](C)(N=C=O)[C@H]4CC[C@@H]31)C[C@@H]2C | 9.4 nM |
| [C-]#[N+][C@@]1(C)CC[C@H]2[C@H]3[C@@H](C(=C)CC[C@@H]31)[C@@H](C=C(C)C)C[C@@H]2C | 47.4 nM |
| [C-]#[N+][C@@]1(C)CC[C@H]2[C@H]3[C@@H](C(=C)CC[C@@H]31)[C@H](CC(=C)C)C[C@@H]2C | 1750 nM |

Results, then the molecule that gave them:

| IC50 | SMILES |
| --- | --- |
| 197 nM | [C-]#[N+][C@@]1(C)CC[C@H]2[C@H]3C(=C(C)CC[C@@H]31)[C@@H](C=C(C)C)C[C@@H]2C |
| 220 nM | [C-]#[N+][C@]1(C)[C@H](C)C[C@@H]2C[C@H](C)[C@H]3CC[C@](C)(N=C=O)[C@H]4CC[C@H]1[C@@H]2[C@H]34 |
| 1020 nM | [C-]#[N+][C@@]1(C)CC[C@H]2[C@H]3[C@@H](C(C)=CC[C@@H]31)[C@H](C=C(C)C)C[C@@H]2C |
| 126 nM | [C-]#[N+][C@]1(C)[C@H](C)C[C@@H]2C[C@H](C)[C@H]3CC[C@](C)(N=C=S)[C@H]4CC[C@H]1[C@@H]2[C@H]34 |
| 285 nM | [C-]#[N+][C@@]1(C)CC[C@H]2[C@H]3[C@H]4C(=CC[C@@H]31)CC(C)(C)C[C@@H]4C[C@@H]2C |
| > 30200 nM | CC(C)=CCC[C@@H](C)[C@H]1CC[C@](C)(N=C=S)[C@H]2CCC(C)=C[C@H]12 |
| 289 nM | [C-]#[N+][C@@]1(C)CC[C@H]2[C@@H]3[C@@H]1CC[C@@H](C)[C@]3(/C=C/C(=C)C)C[C@@H]2C |
